Patent US20250255990A1, “FLUORESCENT NANODIAMOND COATED WITH POROUS POLYDOPAMINE, AND USE THEREOF” (KOREA RESEARCH INSTITUTE OF STANDARDS AND SCIENCE, priority 2022, published 2025)

Tested on: HeLa cells
Experiment: Annexin V-FITC / PI flow cytometry (FACS)
Assay type: cell-based
Conditions: 50 μg/mL, 16 hours
Experimental: In addition, analysis was performed using FACS (BD Accuri™, BD Biosciences) to evaluate the biocompatibility of FND@mPDA-PEG. Specifically, HeLa cells were incubated with 50 μg/mL of FND, FND@mPDA-PEG, or doxorubicin for the control experiment at 37° C. for 16 hours and washed with PBS. Cells (1×10^5 cells/sample) were suspended in 100 μL of 1× binding buffer and stained with 5 μL of Annexin V-FITC and 5 μL of PI. The cells were gently vortexed and incubated at room temperature for 15 minutes in the dark. 400 μL of 1× binding buffer was added to each tube and then analyzed by flow cytometry. 10,000 or more events were collected and the data were analyzed using FlowJo™ version 10.7 software.

COc1cccc2c1C(=O)c1c(O)c3c(c(O)c1C2=O)C[C@@](O)(C(=O)CO)C[C@@H]3O[C@H]1C[C@H](N)[C@H](O)[C@H](C)O1 [doxorubicin]
apoptosis / cell survival: induced apoptosis of HeLa cells
